Values quoted from earlier work, collected in article PMC10769797 (The Oncologist, 2023).

Assays:
POLR2A expression = settings: cited from earlier work
[1] = system: patients with advanced solid tumors; settings: phase I study; cited from earlier work

Q: Which “POLR2A expression change compared with baseline” value (POLR2A expression; CDK7-target occupancy up to 100%) does the source give for `CC1(C)CC[C@H](Nc2ncc(C(F)(F)F)c(-c3c[nH]c4c(P(C)(C)=O)c(C#N)ccc34)n2)CN1` [SY-5609] here?
A: 4-5 fold

Q: What about the “POLR2A expression change in PBMCs” value (POLR2A expression; at 75% CDK7-target occupancy) of the same molecule?
A: approximately 2.5 fold

Q: And the DLTs [1]?
A: cytopenia, gastrointestinal toxicity, and hypotension

Q: And the “Most frequent TEAEs” value [1]?
A: gastrointestinal toxicity, fatigue, thrombocytopenia, and anemia
